Source: paper PMC4522903 (Chemical communications (Cambridge, England), 2015)

Target: T1, Atm1p (Saccharomyces cerevisiae, UniProt P40416)
T1 sequence (P40416 27-690): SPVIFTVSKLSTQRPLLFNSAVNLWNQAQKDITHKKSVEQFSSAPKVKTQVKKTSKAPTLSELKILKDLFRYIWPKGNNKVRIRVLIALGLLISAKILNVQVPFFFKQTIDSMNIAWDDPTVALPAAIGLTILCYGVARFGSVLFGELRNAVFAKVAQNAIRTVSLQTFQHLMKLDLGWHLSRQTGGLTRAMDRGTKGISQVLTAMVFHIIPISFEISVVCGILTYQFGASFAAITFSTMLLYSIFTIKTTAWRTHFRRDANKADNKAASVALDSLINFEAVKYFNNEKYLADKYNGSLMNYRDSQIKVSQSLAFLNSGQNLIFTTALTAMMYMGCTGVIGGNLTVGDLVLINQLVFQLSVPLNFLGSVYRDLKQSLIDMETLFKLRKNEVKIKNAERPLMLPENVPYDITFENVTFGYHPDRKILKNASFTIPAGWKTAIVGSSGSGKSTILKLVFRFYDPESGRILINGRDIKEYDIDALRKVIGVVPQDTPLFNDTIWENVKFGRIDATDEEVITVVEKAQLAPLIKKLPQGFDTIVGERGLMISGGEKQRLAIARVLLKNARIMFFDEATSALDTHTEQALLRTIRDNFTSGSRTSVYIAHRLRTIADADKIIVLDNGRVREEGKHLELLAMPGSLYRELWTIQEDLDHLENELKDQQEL
Test: titration of labeled cluster to Atm1p
Format: binding
Settings: labelled compound

Kd: 118 ± 11 µM
Substance: fluorescein-labeled glutathione [2Fe-2S] cluster
